Assay results published in patent publication US10941157B2, “Pesticidal compositions and uses thereof” (Gilead Apollo, LLC, priority 2015, dated 2021).
Values after ≈ are worked out from the molar mass of the structure shown. Read-outs that look alike come from different tables or passages of the source.

How the values were obtained:
Format in all cases: cell-based
[1] = test system: Fusarium virguliforme (Fv); assay: In vitro pathogen growth inhibition assay, Fv
Procedure, shortened: (§1)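 Spores of Dm, Fv and Pc were diluted in 17% V8 liquid medium; Rs used 1.5 mm mycelial plugs in ¼ PDB. Compounds from 2.5 mg/ml DMSO stocks were combined with inoculum, growth was read by OD600 at 24 and 48 h with blank subtraction, and the reported value is the concentration giving ≥90% inhibition.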

[2] = test system: Fusarium moniliforme (Fm); assay: In vitro pathogen growth inhibition assay, Fm; conditions: Fusarium verticillioides
Procedure, shortened: (§2)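 Spores in 17% V8 liquid medium, or 1.5 mm Rs mycelial plugs in ¼ PDB, incubated with compound; final concentration checked by OD600 for precipitation. OD readings at 24 and 48 h, blank-subtracted, plus visual ratings; value is concentration giving ≥90% growth inhibition.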

Botrtyis cinerea (Bc) = assay: In vitro pathogen growth inhibition assay, Bc; conditions: 48 h
Procedure, shortened: as §2

[3] = test system: Phytophthora capsici (Pc); assay: In vitro pathogen growth inhibition assay, Pc; conditions: 48 h
Procedure, shortened: as §1

Septoria tritici (St) = assay: In vitro pathogen growth inhibition assay, St; conditions: Zymoseptoria tritici, 48 h
Procedure, shortened: as §2

Diplodia maydis (Dm) = assay: In vitro pathogen growth inhibition assay, Dm; conditions: Stenocarpella maydis, 48 h
Procedure, shortened: as §1

[4] = test system: Collectotrichum graminicola (Cg); assay: In vitro pathogen growth inhibition assay, Cg; conditions: 48 h
Procedure, shortened: as §2

Rhizoctonia solani (Rs) = assay: In vitro pathogen growth inhibition assay, Rs (mycelial plugs); conditions: Rhizoctonia solani, 48 h
Procedure, shortened: as §1

[5] = ≥90% growth inhibition, 48 hours, vs 2% DMSO control, read-out: Compound Concentration (ppm) sufficient for ≥90% inhibition of Fv
[6] = ≥90% growth inhibition, 48 hours, vs 2% DMSO control, read-out: Compound Concentration (ppm) sufficient for ≥90% inhibition of Fm
[7] = ≥90% growth inhibition, 48 hours, vs 2% DMSO control, read-out: Compound Concentration (ppm) sufficient for ≥90% inhibition of Bc
[8] = ≥90% growth inhibition, 48 hours, vs 2% DMSO control, read-out: Compound Concentration (ppm) sufficient for ≥90% inhibition of Pc
[9] = ≥90% growth inhibition, 48 hours, vs 2% DMSO control, read-out: Compound Concentration (ppm) sufficient for ≥90% inhibition of St
[10] = ≥90% growth inhibition, 48 hours, vs 2% DMSO control, read-out: Compound Concentration (ppm) sufficient for ≥90% inhibition of Dm
[11] = ≥90% growth inhibition, 48 hours, vs 2% DMSO control, read-out: Compound Concentration (ppm) sufficient for ≥90% inhibition of Cg
[12] = ≥90% growth inhibition, mycelial plugs, 48 hours, vs 2% DMSO control, read-out: Compound Concentration (ppm) sufficient for ≥90% inhibition of Rs

Row | Compound | IC90 [1, 5] | IC90 [2, 6] | IC90 (Botrtyis cinerea (Bc); [7]) | IC90 [3, 8] | IC90 (Septoria tritici (St); [9]) | IC90 (Diplodia maydis (Dm); [10]) | IC90 [4, 11] | IC90 (Rhizoctonia solani (Rs); [12]) | IC90 ([1]; concentration sufficient to ≥90% inhibition of growth, 48 hours vs 2% DMSO control, read-out: Compound Concentration (ppm) for ≥90% inhibition, Fv) | IC90 ([2]; concentration sufficient to ≥90% inhibition of growth, 48 hours vs 2% DMSO control, read-out: Compound Concentration (ppm) for ≥90% inhibition, Fm) | IC90 (Botrtyis cinerea (Bc); concentration sufficient to ≥90% inhibition of growth, 48 hours vs 2% DMSO control, read-out: Compound Concentration (ppm) for ≥90% inhibition, Bc) | IC90 ([3]; concentration sufficient to ≥90% inhibition of growth, 48 hours vs 2% DMSO control, read-out: Compound Concentration (ppm) for ≥90% inhibition, Pc) | IC90 (Septoria tritici (St); concentration sufficient to ≥90% inhibition of growth, 48 hours vs 2% DMSO control, read-out: Compound Concentration (ppm) for ≥90% inhibition, St) | IC90 (Diplodia maydis (Dm); concentration sufficient to ≥90% inhibition of growth, 48 hours vs 2% DMSO control, read-out: Compound Concentration (ppm) for ≥90% inhibition, Dm) | IC90 ([4]; concentration sufficient to ≥90% inhibition of growth, 48 hours vs 2% DMSO control, read-out: Compound Concentration (ppm) for ≥90% inhibition, Cg) | IC90 (Rhizoctonia solani (Rs); concentration sufficient to ≥90% inhibition of growth, 48 hours vs 2% DMSO control, read-out: Compound Concentration (ppm) for ≥90% inhibition, Rs)
1 | Cc1c(-n2cccn2)sc2c1c(=O)n(C(C)(C)C(=O)NC(C)C)c(=O)n2C[C@H](OCCC#N)c1cc(F)ccc1O [Compound I-283] | 10 µg/mL (≈ 17.2 µM) | 2 µg/mL (≈ 3.43 µM) | 10 µg/mL (≈ 17.2 µM) | > 50 µg/mL | > 50 µg/mL | > 50 µg/mL | 50 µg/mL (≈ 85.8 µM) | 2 µg/mL (≈ 3.43 µM) |  |  |  |  |  |  |  | 
2 | COc1ccc(F)cc1[C@H](Cn1c(=O)n(C(C)(C)C(=O)NC(C)C)c(=O)c2c(C)c(-n3cccn3)sc21)OCCS(C)(=O)=O [Compound I-286] | 2 µg/mL (≈ 3.08 µM) | 2 µg/mL (≈ 3.08 µM) | 2 µg/mL (≈ 3.08 µM) | ≥ 50 µg/mL | > 50 µg/mL | ≥ 50 µg/mL | 2 µg/mL (≈ 3.08 µM) | 2 µg/mL (≈ 3.08 µM) |  |  |  |  |  |  |  | 
3 | CCNC(=O)[C@H](C)n1c(=O)c2c(C)c(-n3nccn3)sc2n(C[C@H](OCCC#N)c2cc(F)ccc2OC)c1=O [Compound I-290] | 10 µg/mL (≈ 17.6 µM) | 0.4 µg/mL (≈ 0.702 µM) | 2 µg/mL (≈ 3.51 µM) | > 50 µg/mL | > 50 µg/mL | ≥ 10 µg/mL | 10 µg/mL (≈ 17.6 µM) | 2 µg/mL (≈ 3.51 µM) |  |  |  |  |  |  |  | 
4 | CCNC(=O)C(C)(C)n1c(=O)c2c(C)c(-n3nccn3)sc2n(C[C@@H](O)c2cc(F)ccc2OC)c1=O [Compound I-291] |  |  |  |  |  |  |  |  | 50 µg/mL (≈ 94.2 µM) | 10 µg/mL (≈ 18.8 µM) | 50 µg/mL (≈ 94.2 µM) | > 50 µg/mL | > 50 µg/mL | 50 µg/mL (≈ 94.2 µM) | > 50 µg/mL | 2 µg/mL (≈ 3.77 µM)
5 | COCCO[C@@H](Cn1c(=O)n(C(C)(C)C(=O)NC2CCCCC2)c(=O)c2c(C)c(-n3cccn3)sc21)c1cc(F)ccc1OC [Compound I-293] | 50 µg/mL (≈ 77.9 µM) | 2 µg/mL (≈ 3.12 µM) | 10 µg/mL (≈ 15.6 µM) | > 50 µg/mL | > 50 µg/mL | > 50 µg/mL | > 50 µg/mL | > 50 µg/mL |  |  |  |  |  |  |  | 
6 | COc1ccccc1CCn1c(=O)n(C(C)(C)C(=O)NC(C)C)c(=O)c2c(C)c(-n3nccn3)sc21 [Compound I-294] | 0.08 µg/mL (≈ 0.157 µM) | 0.4 µg/mL (≈ 0.783 µM) | 0.4 µg/mL (≈ 0.783 µM) | > 50 µg/mL | > 50 µg/mL | 10 µg/mL (≈ 19.6 µM) | 10 µg/mL (≈ 19.6 µM) | 2 µg/mL (≈ 3.92 µM) |  |  |  |  |  |  |  | 
7 | CCNC(=O)[C@@H](C)n1c(=O)c2c(C)c(-n3cccn3)sc2n(C[C@H](OCCC#N)c2cc(F)ccc2OC)c1=O [Compound I-295] | 2 µg/mL (≈ 3.52 µM) | 0.4 µg/mL (≈ 0.703 µM) | 2 µg/mL (≈ 3.52 µM) | > 50 µg/mL | > 50 µg/mL | 10 µg/mL (≈ 17.6 µM) | 2 µg/mL (≈ 3.52 µM) | 2 µg/mL (≈ 3.52 µM) |  |  |  |  |  |  |  | 
8 | COc1ccc(F)cc1CCn1c(=O)n(C(C)(C)C(=O)NC(C)C)c(=O)c2c(C)c(-n3nccn3)sc21 [Compound I-296] | 2 µg/mL (≈ 3.78 µM) | 2 µg/mL (≈ 3.78 µM) | 2 µg/mL (≈ 3.78 µM) | > 50 µg/mL | > 50 µg/mL | 10 µg/mL (≈ 18.9 µM) | 2 µg/mL (≈ 3.78 µM) | 2 µg/mL (≈ 3.78 µM) |  |  |  |  |  |  |  | 
9 | CCNC(=O)[C@@H](C)n1c(=O)c2c(C)c(C(=O)OCC)sc2n(C[C@H](OCCC#N)c2cc(F)ccc2OC)c1=O [Compound I-297] | > 50 µg/mL | 2 µg/mL (≈ 3.48 µM) | 10 µg/mL (≈ 17.4 µM) | > 50 µg/mL | > 50 µg/mL | > 50 µg/mL | 10 µg/mL (≈ 17.4 µM) | > 50 µg/mL |  |  |  |  |  |  |  | 
10 | CCOC(=O)c1sc2c(c1C)c(=O)n(C(C)(C)C(=O)NC(C)C)c(=O)n2CCc1cc(F)ccc1OC [Compound I-298] | 2 µg/mL (≈ 3.75 µM) | 2 µg/mL (≈ 3.75 µM) | 2 µg/mL (≈ 3.75 µM) | > 50 µg/mL | > 50 µg/mL | ≥ 10 µg/mL | 10 µg/mL (≈ 18.7 µM) | > 50 µg/mL |  |  |  |  |  |  |  | 
11 | COCCO[C@@H](Cn1c(=O)n(C(C)(C)C(=O)NC2CCC2)c(=O)c2c(C)c(-n3cccn3)sc21)c1cc(F)ccc1OC [Compound I-299] | 2 µg/mL (≈ 3.26 µM) | 0.4 µg/mL (≈ 0.652 µM) | 2 µg/mL (≈ 3.26 µM) | > 50 µg/mL | > 50 µg/mL | 50 µg/mL (≈ 81.5 µM) | 10 µg/mL (≈ 16.3 µM) | 50 µg/mL (≈ 81.5 µM) |  |  |  |  |  |  |  | 
12 | Cc1c(-n2nccn2)sc2c1c(=O)n(C(C)(C)C(=O)NC(C)C)c(=O)n2C[C@H](OCCC#N)c1ccccc1O [Compound I-301] | ≥ 2 µg/mL | 2 µg/mL (≈ 3.54 µM) | 10 µg/mL (≈ 17.7 µM) | > 50 µg/mL | > 50 µg/mL | > 50 µg/mL | > 50 µg/mL | 10 µg/mL (≈ 17.7 µM) |  |  |  |  |  |  |  | 
13 | CCNC(=O)C(C)(C)n1c(=O)c2c(C)c(C(=O)OCC)sc2n(C[C@H](OCCC#N)c2cc(F)ccc2O)c1=O [Compound I-302] | 2 µg/mL (≈ 3.48 µM) | ≥ 2 µg/mL | 10 µg/mL (≈ 17.4 µM) | > 50 µg/mL | > 50 µg/mL | 50 µg/mL (≈ 87 µM) | 50 µg/mL (≈ 87 µM) | 0.08 µg/mL (≈ 0.139 µM) |  |  |  |  |  |  |  | 
14 | CCOC(=O)c1sc2c(c1C)c(=O)n(C(C)(C)C(=O)NC(C)C)c(=O)n2C[C@H](OCC(C)(C)C#N)c1ccccc1OC [Compound I-303] | 2 µg/mL (≈ 3.26 µM) | 0.08 µg/mL (≈ 0.131 µM) | 0.4 µg/mL (≈ 0.653 µM) | > 50 µg/mL | > 50 µg/mL | ≥ 2 µg/mL | 2 µg/mL (≈ 3.26 µM) | 2 µg/mL (≈ 3.26 µM) |  |  |  |  |  |  |  | 
15 | CC(=O)Oc1ccccc1[C@H](Cn1c(=O)n(C(C)(C)C(=O)NC(C)C)c(=O)c2c(C)c(-n3nccn3)sc21)OCCC#N [Compound I-304] | 0.4 µg/mL (≈ 0.658 µM) | 0.08 µg/mL (≈ 0.132 µM) | 2 µg/mL (≈ 3.29 µM) | > 50 µg/mL | > 50 µg/mL | ≥ 10 µg/mL | 2 µg/mL (≈ 3.29 µM) | 2 µg/mL (≈ 3.29 µM) |  |  |  |  |  |  |  | 
16 | CCNC(=O)[C@H](C)n1c(=O)c2c(C)c(C(=O)OCC)sc2n(C[C@H](OCCC#N)c2cc(F)ccc2OC)c1=O [Compound I-305] | 0.4 µg/mL (≈ 0.696 µM) | 0.08 µg/mL (≈ 0.139 µM) | 0.4 µg/mL (≈ 0.696 µM) | > 50 µg/mL | > 50 µg/mL | 2 µg/mL (≈ 3.48 µM) | 2 µg/mL (≈ 3.48 µM) | 0.4 µg/mL (≈ 0.696 µM) |  |  |  |  |  |  |  | 
